What was measured:
Experiment in all cases: relative viability (nuclei count vs DMSO), 5 days (fraction); higher = more cells survive
Afatinib + Tozasertib = compound: CN(C)C/C=C/C(=O)Nc1cc2c(Nc3ccc(F)c(Cl)c3)ncnc2cc1O[C@H]1CCOC1 [Afatinib] + Cc1cc(Nc2cc(N3CCN(C)CC3)nc(Sc3ccc(NC(=O)C4CC4)cc3)n2)n[nH]1 [Tozasertib] (partner 0.1 µM)
Outline: (§1)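 One day after seeding in 1536-well plates, lung cancer cell lines were dosed by pin tool. Dosing was either single-drug or a fixed anchor-drug dose plus five library-drug doses (not always all listed) in √10 steps. After 5 days, nuclei were stained in one fix-and-stain step and counted on 4× images, and relative viability is the nuclei count of treated wells over that of vehicle wells, given as the median of duplicate plates.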

Afatinib + Foretinib = compound: CN(C)C/C=C/C(=O)Nc1cc2c(Nc3ccc(F)c(Cl)c3)ncnc2cc1O[C@H]1CCOC1 [Afatinib] + COc1cc2c(Oc3ccc(NC(=O)C4(C(=O)Nc5ccc(F)cc5)CC4)cc3F)ccnc2cc1OCCCN1CCOCC1 [Foretinib] (partner 0.25 µM)
Outline: as §1

Afatinib + AZD7762 = compound: CN(C)C/C=C/C(=O)Nc1cc2c(Nc3ccc(F)c(Cl)c3)ncnc2cc1O[C@H]1CCOC1 [Afatinib] + NC(=O)Nc1cc(-c2cccc(F)c2)sc1C(=O)N[C@H]1CCCNC1 [AZD7762] (partner 0.2 µM)
Outline: as §1

Afatinib + Luminespib = compound: CN(C)C/C=C/C(=O)Nc1cc2c(Nc3ccc(F)c(Cl)c3)ncnc2cc1O[C@H]1CCOC1 [Afatinib] + CCNC(=O)c1noc(-c2cc(C(C)C)c(O)cc2O)c1-c1ccc(CN2CCOCC2)cc1 [Luminespib] (partner 0.01 µM)
Outline: as §1

Cell Line	relative viability (Afatinib + Tozasertib; first compound 0.005 µM)	relative viability (Afatinib + Tozasertib; first compound 0.01581 µM)	relative viability (Afatinib + Tozasertib; first compound 0.05 µM)	relative viability (Afatinib + Tozasertib; first compound 0.1581 µM)	relative viability (Afatinib + Tozasertib; first compound 0.5 µM)	relative viability (Afatinib + Foretinib; first compound 0.005 µM)	relative viability (Afatinib + Foretinib; first compound 0.01581 µM)	relative viability (Afatinib + Foretinib; first compound 0.05 µM)	relative viability (Afatinib + Foretinib; first compound 0.1581 µM)	relative viability (Afatinib + Foretinib; first compound 0.5 µM)	relative viability (Afatinib + AZD7762; first compound 0.005 µM)	relative viability (Afatinib + AZD7762; first compound 0.01581 µM)	relative viability (Afatinib + AZD7762; first compound 0.05 µM)	relative viability (Afatinib + AZD7762; first compound 0.1581 µM)	relative viability (Afatinib + AZD7762; first compound 0.5 µM)	relative viability (Afatinib + Luminespib; first compound 0.005 µM)	relative viability (Afatinib + Luminespib; first compound 0.01581 µM)	relative viability (Afatinib + Luminespib; first compound 0.05 µM)	relative viability (Afatinib + Luminespib; first compound 0.1581 µM)	relative viability (Afatinib + Luminespib; first compound 0.5 µM)
NCI-H838	0.29	0.264	0.282	0.222	0.276	1.07	1.01	1.11	1.02	1.26	0.801	0.946	0.915	0.968	0.953	0.346	0.291	0.272	0.217	0.248
NCI-H1355	0.577	0.517	0.522	0.501	0.464	0.947	0.636	0.824	0.773	0.751	0.71	0.765	0.779	0.645	0.748	0.703	0.685	0.642	0.647	0.582
NCI-H1395	0.784	0.759	0.712	0.709	0.667	0.939	1.05	0.973	0.914	0.937	0.388	0.378	0.377	0.385	0.354	0.733	0.781	0.664	0.7	0.665
NCI-H1437	0.416	0.43	0.41	0.397	0.412	1.26	1.27	1.24	1.31	1.33	1.11	1.05	1.19	1.09	1.2	1.2	1.14	1.23	1.07	1.12
NCI-H1651	0.718	0.748	0.727	0.591	0.609	0.825	0.636	0.822	0.748	0.746	0.396	0.361	0.424	0.421	0.451	0.923	0.817	1.03	0.835	0.726
NCI-H1666	0.673	0.621	0.596	0.519	0.551	0.932	0.812	0.761	0.725	0.774	0.824	0.776	0.824	0.608	0.76	0.973	0.931	0.796	0.807	0.808
NCI-H1734	0.253	0.255	0.269	0.289	0.26	0.926	0.785	0.83	0.73	0.924	0.389	0.602	0.58	0.498	0.471	0.209	0.225	0.196	0.197	0.19
NCI-H1755	0.522	0.499	0.59	0.554	0.566	0.947	0.937	0.964	0.901	0.897	0.359	0.562	0.528	0.398	0.417	0.287	0.367	0.587	0.408	0.49

From the supplement of paper PMC10307832
